Results on one sequence are retold here after patent US20240109942A1, “CHOLECYSTOKININ (CCK) SECRETION-PROMOTING PEPTIDE TARGETING CALCIUM-SENSING RECEPTOR, AND PREPARATION METHOD AND USE THEREOF” (University of Shanghai for Science and Technology, priority 2022, published 2024).

Where no end group is shown, it is not given here.

For this series, the system named is STC-1 cell. The series is described as follows: MTT cell proliferation and cytotoxicity assay on STC-1 cell. Type of series: cell-based. To be noted: absorbance 570 nm, peptide 0, 1, 2, 4 mmol/L, FIG. 2. Here is the method:
An STC-1 cell was cultured in a dulbecco's modified eagle medium (DMEM) containing 10% fetal bovine serum (FBS), 1% non-essential amino acids (NEAA), 100 U/mL penicillin and 0.1 mg/mL streptomycin. The cell was incubated in a cell incubator containing 5% CO2 at 37° C. and was subcultured by means of trypsin digestion when reaching 80%-90% density.
The effect of the active peptide of QGDVVALPA on the viability of the STC-1 cell was tested and evaluated by means of 3-(4,5-dimethylthiazol-2-yl)-2,5-diphenyltetrazolium bromide [3-(4,5-di methyl-2-thiazolyl)-2,5-di phenyl]-2H-tetrazolium bromide, methyl thiazolyl tetrazolium (MTT)) cell proliferation and cytotoxicity. MTT was added into the STC-1 cell treated in a 96-well plate, and a metabolically active cell cleaved yellow tetrazolium salt MTT into a purple formazan crystal. Formazan formed was dissolved, absorbance was measured with a microplate reader at a measurement wavelength of 570 nm, and results were expressed as a percentage of a control group.

In the case of “QGDVVALPA [QGDVVALPA, Gln-Gly-Asp-Val-Val-Ala-Leu-Pro-Ala]”, the “viability of the STC-1 cell compared with the control group” value is reported as “not changed”.
